Reference: patent US20240252456A1, “ORAL COMPOSITION, SKIN COSMETIC AND HAIR COSMETIC” (MARUZEN PHARMACEUTICALS CO., LTD., priority 2021, published 2024)

Key:
TGM1 mRNA = assay: Transglutaminase-1 (TGM1) mRNA expression promotive action test; type: cell-based, human; conditions: NHEK, 24 hours, A/B×100, corrected with GAPDH
Protocol: Normal human neonatal epidermal keratinocytes (NHEK) were precultured using normal human epidermal keratinocyte growth medium (KGM), and the cells were collected by a trypsin treatment. The collected cells were diluted with KGM to a cell density of 15×10^4 cells/mL, then seeded with 2 mL portions in a 6-well plate (30×10^4 cells/well), and cultured overnight under conditions of 37° C. and 5% CO2. After culturing, the medium was replaced with normal human epidermal keratinocyte basal medium (KBM, the above KGM without addition of growth additives (hEGF, BPE, insulin, antibacterial agents, hydrocortisone)), and culturing was further performed for 24 hours.
After culturing for 24 hours, the medium was removed, and 2 mL of each of test samples (Samples 1 to 3, see Table 15 below for final concentrations) dissolved in KBM was added to each well, and culturing was performed under conditions of 37° C. and 5% CO2 for 24 hours. As a control, culturing was performed in the same manner using KBM to which no sample was added. After culturing, the medium was removed, total RNA was extracted using ISOGEN II (available from NIPPON GENE CO., LTD.), each RNA amount was measured using a spectrophotometer, and the total RNA was prepared so as to be 150 ng/μL.
For TGM1 and GAPDH as an internal standard, the expression levels of mRNA were measured using the above total RNA as a template. Detection was performed through a two-step real-time RT-PCR reaction using a real-time PCR device, Thermal Cycler Dice Real Time System III (available from Takara Bio Inc.), with PrimeScript™ RT Master Mix (Perfect Real Time) (available from Takara Bio Inc.) and TB Green® Fast qPCR Mix (available from Takara Bio Inc.). The primers used were those having the sequences 5′-[…]-3′ and 5′-[…]-3′.
The expression level of TGM1 mRNA was obtained as a value corrected with a value of GAPDH based on total RNA preparations prepared from cells cultured “with test sample addition” and “without sample addition.” From the obtained values, the TGM1 mRNA expression promotion rate (%) was calculated using the following equation.
TGM1 mRNA expression promotion rate (%)=A/B×100
Terms in the equation represent the following respective ones. • A: Corrected value with test sample addition • B: Corrected value without sample addition

[1] = target: T1, hyaluronidase (Type IV-S) (Bos taurus, UniProt Q2YDK3); assay: Hyaluronidase activity inhibitory action test; type: biochemical, bovine; conditions: read-out: Hyaluronidase activity inhibition rate; for inhibition at 250 µM: 250 μmol/L; for inhibition at 1000 µM: 1000 μmol/L
T1 construct: purchased SIGMA Type IV-S; host or cells: bovine testes
T1 sequence (Q2YDK3 36-553): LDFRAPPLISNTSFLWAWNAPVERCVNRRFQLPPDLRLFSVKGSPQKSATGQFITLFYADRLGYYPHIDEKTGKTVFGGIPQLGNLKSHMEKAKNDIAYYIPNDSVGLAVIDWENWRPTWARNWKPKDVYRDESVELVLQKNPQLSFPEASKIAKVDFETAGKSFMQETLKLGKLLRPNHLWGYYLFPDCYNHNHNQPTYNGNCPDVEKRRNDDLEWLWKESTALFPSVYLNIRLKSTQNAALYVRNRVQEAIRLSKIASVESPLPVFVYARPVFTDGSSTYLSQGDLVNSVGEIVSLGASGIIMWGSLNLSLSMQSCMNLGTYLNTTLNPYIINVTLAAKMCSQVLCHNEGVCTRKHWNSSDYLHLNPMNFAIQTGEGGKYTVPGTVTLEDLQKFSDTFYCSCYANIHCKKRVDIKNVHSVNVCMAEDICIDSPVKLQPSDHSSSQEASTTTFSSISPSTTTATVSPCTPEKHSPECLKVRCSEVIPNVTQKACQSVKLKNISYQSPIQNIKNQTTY
Protocol: To 0.2 mL of each of test samples (Samples 1 to 3, see Table 27 below for final concentrations) dissolved in 0.1 mol/L acetate buffer solution (pH 3.5), 0.1 mL of hyaluronidase solution (available from SIGMA, Type IV-S, from bovine tests, 400 NF units/mL) was added, and the mixture was statically placed at 37° C. for 20 minutes. Furthermore, 0.2 mL of 2.5 mmol/L calcium chloride was added as an activator, and the mixture was statically placed at 37° C. for 20 minutes. To this was added 0.5 mL of 0.8 mg/mL sodium hyaluronate solution (from rooster comb), and the mixture was reacted at 37° C. for 40 minutes. After that, 0.2 mL of 0.4 mol/L sodium hydroxide was added to stop the reaction, it was cooled, and then 0.2 mL of boric acid solution was added to each reaction solution, which was boiled for 3 minutes. After cooling on ice, 6 mL of p-DABA reagent was added and reacted at 37° C. for 20 minutes. After that, the absorbance at a wavelength of 585 nm was measured.
In addition, as a blank, the same operation and absorbance measurement were performed in the case in which no enzyme solution was added. Furthermore, as a control, the same measurement was performed in the case in which distilled water was added without adding the sample solution. From the obtained results, the hyaluronidase activity inhibition rate (%) was calculated using the following equation.
Terms in the equation represent the following respective ones. • A: Absorbance at wavelength 585 nm with test sample addition and with enzyme addition • B: Absorbance at wavelength 585 nm with test sample addition and without enzyme addition • C: Absorbance at wavelength 585 nm without sample addition and with enzyme addition • D: Absorbance at wavelength 585 nm without sample addition and without enzyme addition

For `O=C(O)CCc1ccccc1` [Sample 3, 3-phenylpropionic acid], the “TGM1 mRNA expression promotion rate” value (TGM1 mRNA; 25 μmol/L) was 218.5%, the “TGM1 mRNA expression promotion rate” value (TGM1 mRNA; 100 μmol/L) was 174.9% and the inhibition at 62.5 µM ([1]; 62.5 μmol/L) was 16.5%. It also gave an inhibition at 250 µM [1] of 20.2% and an inhibition at 1000 µM [1] of 41.1%.

With `O=C(O)CCc1ccc(O)c(O)c1` [Sample 1, 3,4-Dihydroxyhydrocinnamic acid] the “TGM1 mRNA expression promotion rate” value (TGM1 mRNA; 6.25 μmol/L) was 214.6%, the “TGM1 mRNA expression promotion rate” value (TGM1 mRNA; 25 μmol/L) was 528.6% and the “TGM1 mRNA expression promotion rate” value (TGM1 mRNA; 100 μmol/L) was 1617.1%. The inhibition at 250 µM [1] was 4.9% and the inhibition at 1000 µM [1] was 19.9%.

For `O=C(O)CCc1ccc(O)cc1` [Sample 2, 3-(4-Hydroxyphenyl)propionic acid], the “TGM1 mRNA expression promotion rate” value (TGM1 mRNA; 100 μmol/L) was 160.8% and the inhibition at 1000 µM [1] was 15.8%.
